# Experimental data as given in patent publication US8557858B2, “(E)-N-(2-amino-phenyl)-3-{1-[4-(l-methyl-1H-pyrazol-4-yl)-benzenesulfonyl]-1H-pyrrol-3-yl}-acrylamide salts” (4SC AG, priority 2008, dated 2013).
# How the values were obtained:
# Assay type in all cases: physicochemical
# Details in all cases: compared to the known hydrochloride salt
# [1] = Dissolution behavior / dissolution velocity of the salts
# Stability of the salts = assay: Stability of the salts
# Solubility of the salt = assay: Solubility of the salt
structure (smiles),measurement,setting,value
"Cc1ccc(S(=O)(=O)O)cc1.Cn1cc(-c2ccc(S(=O)(=O)n3ccc(/C=C/C(=O)Nc4ccccc4N)c3)cc2)cn1 [toluenesulfonate salt, (E)-N-(2-Amino-phenyl)-3-{1-[4-(1-methyl-1H-pyrazol-4-yl)-benzenesulfonyl]-H-pyrrol-3-yl}-acrylamide toluene-4-sulfonate]",dissolution velocity,[1],particularly high
same,stability,Stability of the salts,enhanced
same,solubility,Solubility of the salt,high
